Earlier results in PMC12521730, “Quantitative dual-isotope preclinical SPECT/CT imaging and biodistribution of the mercury-197m/g theranostic pair with [^197m/gHg]HgCl2 and a [^197m/gHg]Hg-tetrathiol complex as a platform for radiopharmaceutical development” (EJNMMI Radiopharmacy and Chemistry, 2025).

Legend:
[1] = set-up: method as in Randhawa et al. [2023]; conditions: 72 h; ref Randhawa et al. [2023]; cited from earlier work
[2] = 24 h; ref Randhawa et al. [2023]; cited from earlier work

SMILES: O=C(CN1CCSCCSCCSCCSCC1)NCc1ccccc1.[Hg+2] [NS4-BA complex]
- intact complex when challenged against GSH [1]: 92 ± 1%
- intact complex in human serum [2]: 74 ± 7%
